≈ marks a conversion by molar mass, not a printed value. One block for each molecule: values may come before it.
Assays:
Assay type in all cases: cell-based
[1] = system: KB/HeLa (ATCC CCL17, human cervix carcinoma); assay: XTT cytotoxicity assay, KB/HeLa cells; conditions: 48 h, 2 days of continuous drug exposure
Procedure: (§1) Human tumor cell lines KB/HeLa (ATCC CCL17, human cervix carcinoma), PC3 (ATCC CRL1435, human prostate carcinoma) and RKOp21 (human colon adenocarcinoma) cells were used in an automated XTT screening assay for the assessment of cytotoxicity.
(§2) The XTT assay quantifies cellular metabolic activity which correlates with cell viability and cell number. Test compounds (selected compounds of the invention and known substances as controls) are dissolved in culture medium at 600µM and added to the tumor cells in 10 different concentrations in a semi-logarithmic fashion starting from 100 µM as highest concentration.
(§3) 48h later cellular metabolic activity of cells treated with test compounds is quantified by measurement of the absorbance at 490nm (conversion of XTT dye) in comparison to untreated control cells (100% viability).
(§4) KB/HeLa and PC3 cells were cultivated in RPMI medium supplemented with 10% heat inactivated fetal calf serum, 2 mM glutamine, 100 U/ml penicillin, and 100 µg/ml streptomycin. RKOp21 cells were grown in DMEM supplemented with 10% heat inactivated fetal calf serum, 2 mM glutamine, 100 U/ml penicillin, and 100 µg/ml streptomycin. All cells were cultured at 37°C in 5% CO2 humidified air.
(§5) On the first day of the experiment cells were harvested from exponential phase cultures by trypsination, counted and plated into 96 well flat-bottom micro titer plates depending on the cell line as listed below:
(§6) After a 24h recovery to allow the cells to resume exponential growth, the test compounds were diluted immediately prior to use and transferred in 25µl volume to the wells.
(§7) Following 2 days of continuous drug exposure 50µl of freshly prepared XTT-PMS solution (2% […] PMS in PBS + 98% 1 mg/ml XTT in RPMI 1640 without phenol red) was added to the wells. To measure the proportion of living cells, the cells were incubated for 3 h with XTT-PMS reagent at 37°C, 5% CO2, humidified atmosphere allowing to form the formazan salt. The amount of soluble formazan salt produced by cellular reduction of XTT is quantified by measuring the absorbance at 490nm using the Biomek® 2000 ELISA plate reader.
(§8) %-inhibition (cytotoxicity) of each test compound was calculated in relation to untreated control cells. Inhibition curves were generated and IC50 values calculated by using GraphPad Prism.

[2] = system: Trypanosoma cruzi (Tulahuan-LACZ amstigotes in PEM); assay: In vitro drug activity assay, protozoon A (amastigotes in murine peritoneal macrophages, CPRG readout); conditions: infected macrophages exposed for 3 days
Procedure: Murine (CD1) peritoneal macrophages were harvested 24 hours after starch induction and dispensed into 96-well plates at a concentration of 4 x 10^5 mL. After 24 hours, the cells were infected with Trypanosoma cruzi Tulahuan LAC-Z amastigotes (grown and cultured according to Buckner et al., Infection and Immunity 1999, 67(1): 403-409). 24 hours later, the infected cells were exposed to the test compounds (compounds of the invention as well as known prior art compounds) for 3 days and 50 µL of 500 µM CPRG-1% Nonidet P-40 was added to each well. The plates were read after 2 to 5 hours at 570 nm (Buckner et al., Antimicrobial Agents and Chemotherapy 1996, 40(11): 2592-2597). ED50 values were calculated with Msxlfit (IDBS).
(§9) The following protozoa were assessed: • A) Trypanosoma cruzi (Tulahuan-LACZ amstigotes in PEM, Lorente SO et al., Antimicrobial agents and chemotherapy 2004, 48(8): 2937-2950; Buckner et al., Infection and Immunity 1999, 67(1): 403-409; Buckner et al., Antimicrobial Agents and Chemotherapy 1996, 40(11): 2592-2597) • B) Trypanosoma brucei rhodesiense (strain STIB900, Lorente SO et al., Antimicrobial agents and chemotherapy 2004, 48(8): 2937-2950; Habtemariam S, BMC Pharmacology 2003, 3:6) • C) Plasmodium falciparum (strain K1, Korsinczky M et al., Antimicrobial agents and chemotherapy 2000, 44(8): 2100-2108; Thaitong S and Beale GH, Trans. R. Soc. Trop. Med. Hyg. 1981, 75: 271-273; Trager W and Jensen JB, Science 1976, 193: 673-675) • D) Plasmodium falciparum (strain 3D7, Mu et al., PLoS Biology 2005, 3(10): e335)

[3] = system: RKOp21 (human colon adenocarcinoma) cells; assay: XTT cytotoxicity assay, RKOp21 cells; conditions: 48 h, 2 days of continuous drug exposure
Procedure: as §1, §2, §3, §4, §5, §6, §7, §8

[4] = system: PC3 (ATCC CRL1435, human prostate carcinoma); assay: XTT cytotoxicity assay, PC3 cells; conditions: PC-3, 48 h, 2 days of continuous drug exposure
Procedure: as §1, §2, §3, §4, §5, §6, §7, §8

[5] = system: Plasmodium falciparum (strain 3D7); assay: In vitro drug susceptibility assay, protozoon D (3[H]-hypoxanthine method)
Procedure: (§10) Plasmodium falciparum strain K1 and strain 3D7 parasites were cultured according to Trager W and Jensen JB (Science 1976, 193: 673-675). In vitro drug susceptibility assays with the test compounds were carried out according to Korsinczky M et al. (Antimicrobial agents and chemotherapy 2000, 44(8): 2100-2108) and Fivelman QL et al. (Antimicrobial agents and chemotherapy 2004, 48(11): 4097-4102) using a ^3[H]-hypoxanthine radioisotope method. ED50 values were calculated with Msxlfit (IDBS).
as §9

[6] = system: Plasmodium falciparum (strain K1); assay: In vitro drug susceptibility assay, protozoon C (3[H]-hypoxanthine method)
Procedure: as §10, §9

[7] = system: Trypanosoma brucei rhodesiense (strain STIB900); assay: In vitro drug activity assay, protozoon B (bloodstream form trypomastigotes, Alamar Blue); conditions: incubated for 72 hours
Procedure: Trypanosoma brucei rhodesiense STIB900 bloodstream form trypomastigotes were maintained in HMI-18 medium (Hirumi H, Hirumi K, J Parasitol. 1989, 75(6):985-989) with 15% heat-inactivated fetal calf serum at 37°C, 5% CO2, humidified atmosphere. Trypomastigotes were washed and resuspended in fresh medium at a concentration of 2 x 10^5 mL. Test compounds were given to the trypomastigotes and plates were incubated for 72 hours at 37°C, 5% CO2, humidified atmosphere. At 72 hours the plates were assessed microscopically before Alamar Blue was added (Raz et al., Acta Trop. 1997, 68: 139-147). Plates were read after 5 to 6 hours at EX/EM 530/585 nm with a filter cutoff at 550 nm. ED50 values were calculated with Msxlfit (IDBS).
as §9

[8] = system: Candida albicans (ATCC 10231); assay: Anti-fungal susceptibility test (microdilution), fungus A; conditions: Candida albicans, ATCC10231, no visible growth after 48 hours at 35° C, read-out: MIC
Procedure: (§11) The antifungal activities of the test compounds (compounds of the invention and known prior art compounds) were measured according to standard microdilution methods (Cryptococcus/Aspergillus: Ghannoum et al., Journal of Clinical Microbiology 1992, 30 (11): 2881-2886; Candida: Reference method for broth dilution susceptibility testing of yeast: proposed standard, NCCLS document M27-P, National Committee for Clinical Laboratory Standards 1992, Villanova, Pa).
(§12) A serial dilution series starting from 64 µg/mL test compound per well down to 0.125 µg/mL test compound per well was applied for each test compound on each fungus. The MIC of each compound was defined as the concentration which produces no visible growth after 48 hours (Candida) and 72 hours (Cryptococcus, Aspergillus) of culture at 35° C.
(§13) The following fungi were assessed: • A) Candida albicans (ATCC 10231) • B) Candida albicans (ATCC 90028) • C) Candida albicans (strain TS3, Shrikantha et al., Journal of Bacteriology 2000, 182(6):1580-1591) • D) Candida parapsilosis (ATCC 22019) • E) Cryptocoocus neoformans (ATCC 90112) • F) Cryptocoocus neoformans (strain H99; Ganendren et al., Antimicrobial Agents and Chemotherapy, 2004, 48(5):1561-1569) • G) Cryptocoocus gattii (ATCC 32608) • H) Aspergillus fumigatus (ATCC 204305) • I) Aspergillus fumigatus (strain 322-384)

[9] = system: Candida parapsilosis (ATCC 22019); assay: Anti-fungal susceptibility test (microdilution), fungus D; conditions: ATCC22019, no visible growth after 48 hours at 35° C, read-out: MIC
Procedure: as §11, §12, §13

[10] = system: Cryptocoocus neoformans (ATCC 90112); assay: Anti-fungal susceptibility test (microdilution), fungus E; conditions: 72 h
Procedure: as §11, §12, §13

[11] = system: Candida albicans (ATCC 90028); assay: Anti-fungal susceptibility test (microdilution), fungus B; conditions: Candida albicans, ATCC90028, no visible growth after 48 hours at 35° C, read-out: MIC
Procedure: as §11, §12, §13

[12] = system: Aspergillus fumigatus (strain 322-384); assay: Anti-fungal susceptibility test (microdilution), fungus I; conditions: Aspergillus fumigatus, no visible growth after 72 hours at 35° C, read-out: MIC
Procedure: as §11, §12, §13

[13] = system: Candida albicans (strain TS3); assay: Anti-fungal susceptibility test (microdilution), fungus C; conditions: Candida albicans, no visible growth after 48 hours at 35° C, read-out: MIC
Procedure: as §11, §12, §13

[14] = system: Cryptocoocus gattii (ATCC 32608); assay: Anti-fungal susceptibility test (microdilution), fungus G; conditions: fungus G; no visible growth after 72 hours at 35° C; read-out: MIC
Procedure: as §11, §12, §13

[15] = system: Aspergillus fumigatus (ATCC 204305); assay: Anti-fungal susceptibility test (microdilution), fungus H; conditions: Aspergillus fumigatus, ATCC204305, no visible growth after 72 hours at 35° C, read-out: MIC
Procedure: as §11, §12, §13

[16] = system: Cryptocoocus neoformans (strain H99); assay: Anti-fungal susceptibility test (microdilution), fungus F; conditions: fungus F; no visible growth after 72 hours at 35° C; read-out: MIC
Procedure: as §11, §12, §13

Compound: CCCCCCCCCCCCCCCCOP(=O)([O-])OCC[N+](C)(C)C [miltefosine, reference compound]
IC50 [1]: 8.66 µM
ED50 (µg/mL) [2]: 0,63 µg/mL
IC50 [3]: 18 µM
IC50 [4]: 9.39 µM

Compound: CCCCCCCCCCCCCCCCOP(=O)([O-])OC1CC[N+](C)(CCc2ccccc2)CC1 (centres unmarked) [Compound 4, Phosphoric acid 1-methyl-1-phenethyl-piperidin-4-yl ester hexadecyl ester]
ED50 (µg/mL) [5]: 15,32 µg/mL
ED50 (µg/mL) [6]: 5,44 µg/mL
ED50 (µg/mL) [7]: 12,29 µg/mL

Compound: CCCCCCCCCCCCCCCCCCOP(=O)([O-])OC1CC[N+](C)(C)CC1 [perifosine, octadecyl-1,1-dimethyl-piperidino-4-yl-phosphate, reference compound]
IC50 [1]: 2.37 µM
IC50 [3]: 3.31 µM
IC50 [4]: 3.22 µM

Compound: CCCCCCCC/C=C\CCCCCCCCCCCCOP(=O)([O-])OC1CC[N+](C)(C)CC1 [Compound 17, Phosphoric acid 1,1-dimethyl-piperidin-4-yl ester (Z)-docos-13-enyl ester]
IC50 [1]: 16.6 µM
IC50 [3]: 32.5 µM
IC50 [4]: 18.3 µM

Compound: O=C(Cn1ccnc1[N+](=O)[O-])NCc1ccccc1 [benznidazole, Benznidazole, reference compound]
ED50 (µg/mL) [2]: 0,22 µg/mL

MIC [8]: > 64 µg/mL
MIC [9]: > 64 µg/mL
MIC [10]: 4 µg/mL (≈ 8.17 µM)
MIC [11]: > 64 µg/mL
MIC [12]: > 64 µg/mL
MIC [13]: > 64 µg/mL
MIC [14]: 1.5 µg/mL (≈ 3.06 µM)
MIC [15]: > 64 µg/mL
MIC [16]: 3 µg/mL (≈ 6.13 µM)
Compound: CCCCCCCC/C=C\CCCCCCCCCCCCOP(=O)([O-])OCC[N+](C)(C)C [ErPC, (13Z)-docosenylphosphocholine, reference compound]

From EP1800684A1, “Novel alkyl phospholipid derivatives and uses thereof” (Zentaris GmbH, priority 2005, dated 2007)
